Experimental data as given in patent publication US5871779A, “Treatment of arthropathies with vanadate compounds or analogues thereof” (Mount Sinai Hospital Corporation, priority 1996, dated 1999).
Entries after “also recorded” stand apart in the source; their conditions may differ.

Key:
c-fos = experiment: TNFα and bFGF induced c-fos mRNA in chondrocytes (Northern blot); format: cell-based, bovine; conditions: 30 mM, 2 hours preincubation
Experimental: Chondrocyte cultures were stimulated with H2 O2 (100 μM) at different time points as indicated. […] Chondrocyte cultures were preincubated with NAC (30 mM) or Asc (100 μM) for 2 hours before the addition of bFGF (10 ng/ml) or TNFα (30 ng/ml) for 30 minutes. Both human recombinant TNFα and bFGF were dissolved in phosphate buffered saline with 0.1% bovine serum albumin. NAC and Asc were first dissolved in Ham's F12 medium containing 5% (v/v) fetal bovine serum, then neutralized with sodium hydroxide. Total RNA from bovine articular chondrocytes was isolated and the c-fos mRNA levels were determined by Northern blot analysis as described herein. The blots were subsequently stripped of DNA and re-probed with ^32 p-labelled rat β tubulin cDNA.
Chondrocyte cultures were pretreated with DPI (2 μM) for 30 minutes before the addition of TNFα (30 ng/ml) or bFGF (10 ng/ml) for 30 minutes. Measurements of c-fos and tubulin mRNA levels were as described in Example 11.

collagenase [1] = experiment: collagenase production by chondrocytes (ELISA); format: cell-based, bovine; conditions: summary statement
Experimental: The effect of orthovanadate and N-acetylcysteine on fos, jun and collagenase expression were examined. Bovine articular chondrocytes were isolated and plated as previously described (Kandel R. A. et al. Biochim. Biophys. Acta. 1053, 130-134, 1990). In order to determine the effect of orthovanadate on IL 1 and PMA (phorbol ester) induced responses, chondrocytes were incubated with orthovanadate (100 μM) for 2 hours before stimulation with IL 1 (10 ng/ml) or PMA ([…]). Collagenase production was determined by incubating chondrocytes for 24 hours with IL 1 or PMA and the cell conditioned medium was assayed for collagenase activity using an ELISA procedure as described previously (Kandel et al. supra). PLA2 activity was measured by incorporating ^3 H-arachidonic acid (^3 H-AA) into the cells and then incubating the cells with medium containing 1 mg/ml BSA, either alone or in the presence of IL 1 or PMA, for 10 min. as previously described (Conquer, J. A. […], Biochim. Biophys. Acta. 1134, 1-6). The amount of ^3 H-AA liberated into the supernatant was determined. To measure PGE2 production, chondrocytes were incubated for 6 hours in Ham's F12 medium, either alone or with IL 1 or PMA. The supernatant was analyzed by RIA using an antibody specific for PGE2 (Dr. S. A. Jones, Mount Sinai Hospital, Toronto, Canada). In order to examine the expression of c-fos and c-jun, chondrocytes were incubated for 1 hour in the presence of IL-1, PMA or AA (3 μM). Chondrocytes were washed in PBS and the total RNA extracted as previously described (Cruz. et al, 1991, Biochem. J. 277, 327-330). RNA samples were run on formaldehyde agarose gels and transferred to nylon membrane for northern analysis using cDNA probes for c-fos and c-jun.

[2] = system: collagen induced arthritis; experiment: collagen induced arthritis, clinical arthritis score; format: in vivo, rats; conditions: NAC 100 mg/kg/day s.c.; listed as NAC
Experimental: Syngeneic 8 week old female Louvain (LOU) rats were fed with standard lab chow and housed in the vivarium at the University of California, Los Angeles. […] E. et al., J. Exp. Med., 146: 857-868, 1977). […] Rats with definite arthritis on Day 10 post immunization were randomized into two groups. Control rats (n=8) received only NAC at a dose of 100 mg/kg/day s.c. NAC was prepared as a 3% aqueous solution. […] Clinical arthritis severity of each limb was scored daily based on an objective integer scale of 0-4 (Trentham, D. E. et al., J. Exp. Med., 146: 857-868, 1977). A score of 0 indicated an unaffected limb, while a score of 4 represented fulminant erythema and edema involving distal digits. The arthritic index of a rat is defined as the sum of its four limb scores. Since CIA typically involves only the hind limbs, an arthritic index of 6 to 8 is considered severe arthritis.

collagenase [3] = experiment: collagenase mRNA expression in chondrocytes (Northern blot); format: cell-based, bovine; conditions: in the presence of IL 1; N-acetylcysteine 20 mM for 20 min
Source text: (§1) The cytokine interleukin 1 (IL 1) has been used to identify the intermediate second messengers which regulate the expression of fos and jun.
Although IL 1 stimulated superoxide production, it was not known whether IL 1 induced fos and jun expression was dependent on the production of superoxides. In order to elucidate this possibility, the effect of DPI on fos and jun mRNA levels induced by IL 1 was investigated. RNA from chondrocytes treated with IL 1 in the presence and absence of DPI were analyzed by Northern blot analysis using either fos or collagenase cDNA probes. […] Similar data has been obtained for IL 1 induced jun expression. Furthermore, inhibition of fos and jun expression by DPI was sufficient to suppress IL 1 induced and constitutive collagenase expression.
Cells were also incubated as described above with 20 mM N-acetylcysteine for 20 min. and then incubated with IL 1 for an additional 1 or 12 hours. The RNA was extracted and examined by Northern blot analysis using cDNA probes for c-fos and collagenase. N-acetylcysteine which is converted to GSH intracellularly was also found to reduce the levels of fos and collagenase expression in response to IL 1 (FIG. 5). Presumably the higher intracellular levels of GSH reduced H2 O2 and superoxide levels and suppressed the induction of fos and collagenase expression.

fos = fos / c-fos mRNA expression in chondrocytes (Northern blot); format: cell-based, bovine; conditions: in the presence of IL 1; N-acetylcysteine 20 mM for 20 min
Experimental: as §1
In order to elucidate this possibility, the effect of DPI on fos and jun mRNA levels induced by IL 1 was investigated. RNA from chondrocytes treated with IL 1 in the presence and absence of DPI were analyzed by Northern blot analysis using either fos or collagenase cDNA probes.
Since superoxides are rapidly converted to hydrogen peroxide in the cell by superoxide dismutase, whether hydrogen peroxide could mimic the effect of IL 1 in the induction of fos expression was investigated. RNA was extracted from chondrocytes (Kandel et al. supra) treated with H2 O2 for 30, 60 and 90 minutes and examined by Northern blot analysis using a fos cDNA probe.
Bovine articular chondrocytes were isolated and plated as previously described (Kandel R. A. et al. Biochim. Biophys. Acta. 1053, 130-134, 1990). […] The amount of ^3 H-AA liberated into the supernatant was determined. To measure PGE2 production, chondrocytes were incubated for 6 hours in Ham's F12 medium, either alone or with IL 1 or PMA. […] In order to examine the expression of c-fos and c-jun, chondrocytes were incubated for 1 hour in the presence of IL-1, PMA or AA (3 μM). Chondrocytes were washed in PBS and the total RNA extracted as previously described (Cruz. et al, 1991, Biochem. J. 277, 327-330). RNA samples were run on formaldehyde agarose gels and transferred to nylon membrane for northern analysis using cDNA probes for c-fos and c-jun.
The RNA was extracted and examined by Northern blot analysis using cDNA probes for c-fos and collagenase.

tumor growth = tumor growth in vivo, orthovanadate and N-acetylcysteine (Example 7); parameters: species or system mice; conditions: combination with orthovanadate
Experimental: Since N-acetylcysteine is converted to glutathione in cells, higher levels of glutathione may not only reduce orthovanadate induced toxicity but may also reduce tumor formation.
Twenty mice were injected subcutaneously with 2×10^5 cells on Day 1. At day 4, the mice were divided into four groups of five mice. Group one (control) received subcutaneous injections of 50 μl of water. Group two received daily intraperitoneal injections of 50 μl of 250 mM N-acetylcysteine. Group three received daily subcutaneous injections of 50 μl of 10 mg/ml of orthovanadate. Group four received daily intraperitoneal injections of 50 μl of […] N-acetylcysteine and 20 minutes later received 50 μl of subcutaneous injection of 50 μl of 10 mg/ml of orthovanadate. On day 10 the treatment was stopped. The animals were sacrificed on Day 13 and analyzed for tumor growth.

## CC(=O)N[C@@H](CS)C(=O)O [N-acetylcysteine]
c-fos
  inhibition of TNFα and bFGF induced c-fos mRNA levels: inhibit
Collagenase [1]
  production of metalloproteases, such as collagenase: inhibit
[2]
  arthritis development / clinical severity, NAC alone: developed severe arthritis; also recorded: no appreciable effect
Collagenase [3]
  IL 1 induction of collagenase: reduce
fos
  IL 1 induction of fos: reduce
Tumor growth
  toxic effects observed with orthovanadate alone: reduce the slight toxic effects
